Test results reported in US12528816B2, “Substituted imidazo [1,2-b] pyridazines and [1, 2, 4] triazolo [ 4,3-b] pyridazines as camkii inhibitors” (Cardurion Pharmaceuticals, INC., priority 2020, dated 2026).

molecular target: T1, human CaMKIIδ (Homo sapiens, UniProt Q13557); assay: Evaluation of in vitro CaMKII inhibitory activity (binding assay, TR-FRET); details: in vitro CaMKII inhibitory activity (binding assay), human CaMKIIδ; read-out: Act
T1 construct: Full-length, glutathione-S-transferase(GST)-tagged, human CaMKIIδ was purchased from Carna Biosciences; purchased Carna Biosciences (CaMKIIδ); Wako Pure Chemical Industries (calmodulin) 02-111
Description: Evaluation of In Vitro CaMKII Inhibitory Activity (Binding Assay)
In vitro CaMKIIδ inhibitory activity was evaluated by a binding assay.
Full-length bovine calmodulin was purchased from Wako Pure Chemical Industries (Osaka, Japan). Terbium-labeled anti-GST anti body (Tb-anti-GST Ab) was purchased from Life Technologies (Carlsbad, CA, USA). Fluorescent probe ligand, 5,5-difluoro-7,9-dimethyl-3-(3-oxo-3-((3-((4-(3-(piperazin-1-yl)phenyl)pyrimidin-2-yl)amino)phenyl)amino) propyl)-5H-dipyrrolo[1,2-c:2′,1′-f]
Time-resolved fluorescence resonance energy transfer (TR-FRET) assay
The fluorescent probe ligand, 5,5-difluoro-7,9-dimethyl-3-(3-oxo-3-((3-((4-(3-(piperazin-1-yl)phenyl)pyrimidin-2-yl)amino)phenyl)amino) propyl)-5H-dipyrrolo[1,2-c:2′,1′-f] […] After shaded incubation of the protein-probe mixture on ice for 30 min, the premix was dispensed in the assay plate including test inhibitors with 4 fold dilution series of eight concentrations. After 1 hr incubation at room temperature, TR-FRET signals were measured in duplicate using an EnVision microplate reader (Perkin Elmer, Waltham, MA, USA).
The half maximal inhibitory concentration (IC50) of test compounds was calculated by fitting the data with the logistic equation using XLfit (IDBS, Guildford, UK).

SMILES	IC50 [nM]
C[C@@H](Cn1cnnn1)Oc1cc(-c2ccc3ncn(-c4cc(F)ccc4C#N)c3n2)cnn1 [Example 347, 4-fluoro-2-[5-(6-{[(2S)-1-(1H-tetrazol-1-yl)propan-2-yl]oxy}pyridazin-4-yl)-3H-imidazo[4,5-b]pyridin-3-yl]benzonitrile]	10 to 100
C[C@@H](Cn1cnnn1)Oc1cccc(-c2ccc3ncc(-c4nccc(OCC(F)F)c4C#N)n3n2)c1 [Example 354, 4-(2,2-difluoroethoxy)-2-[6-(3-{[(2S)-1-(1H-tetrazol-1-yl)propan-2-yl]oxy}phenyl)imidazo[1,2-b]pyridazin-3-yl]pyridine-3-carbonitrile]	< 10
CNc1ccnc(-c2cnc3ccc(-c4cccc(O[C@@H](C)Cn5cnnn5)c4)nn23)c1C#N [Example 358, 4-(methylamino)-2-[6-(3-{[(2S)-1-(1H-tetrazol-1-yl)propan-2-yl]oxy}phenyl)imidazo[1,2-b]pyridazin-3-yl]pyridine-3-carbonitrile]	< 10
C[C@@H](Cn1cnnn1)Oc1cccc(-c2ccn3nc(F)c(-c4cc(F)ccc4C#N)c3n2)c1 [Example 379, 4-fluoro-2-[2-fluoro-5-(3-{[(2S)-1-(1H-tetrazol-1-yl)propan-2-yl]oxy}phenyl)pyrazolo[1,5-a]pyrimidin-3-yl]benzonitrile]	< 10
C[C@@H](Cn1cnnn1)Oc1cccc(-c2ccc3ncn(-c4cc(C(F)F)ccc4C#N)c3n2)c1 [Example 383, 4-(difluoromethyl)-2-[5-(3-{[(2S)-1-(1H-tetrazol-1-yl)propan-2-yl]oxy}phenyl)-3H-imidazo[4,5-b]pyridin-3-yl]benzonitrile]	< 10
COc1cc(F)cc(-c2cnc3ccc(-c4cncc(O[C@@H](C)Cn5cnnn5)n4)nn23)c1C#N [Example 392, 4-fluoro-2-methoxy-6-[6-(6-{[(2S)-1-(1H-tetrazol-1-yl)propan-2-yl]oxy}pyrazin-2-yl)imidazo[1,2-b]pyridazin-3-yl]benzonitrile]	< 10
COc1cc(F)cc(-n2cnc3ccc(-c4cccc(O[C@@H](C)Cn5cnnn5)n4)nc32)c1C#N [Example 393, 4-fluoro-2-methoxy-6-[5-(6-{[(2S)-1-(1H-tetrazol-1-yl)propan-2-yl]oxy}pyridin-2-yl)-3H-imidazo[4,5-b]pyridin-3-yl]benzonitrile]	< 10
COc1nccc(-c2cnc3ccc(-c4ccc(F)c(O[C@@H](C)Cn5cnnn5)c4)nn23)c1C#N [Example 399, 4-[6-(4-fluoro-3-{[(2S)-1-(1H-tetrazol-1-yl)propan-2-yl]oxy}phenyl)imidazo[1,2-b]pyridazin-3-yl]-2-methoxypyridine-3-carbonitrile]	< 10
C[C@@H](Cn1cnnn1)Oc1cccc(-c2ccc3ncc(-c4cc(F)cc(OC(F)F)c4C#N)n3n2)n1 [Example 409, 2-(difluoromethoxy)-4-fluoro-6-[6-(6-{[(2S)-1-(1H-tetrazol-1-yl)propan-2-yl]oxy}pyridin-2-yl)imidazo[1,2-b]pyridazin-3-yl]benzonitrile]	< 10
COc1cc(F)cc(-c2cnc3ccc(-c4cccc(O[C@@H](C)Cn5cnnn5)n4)nn23)c1C#N [Example 410, 4-fluoro-2-methoxy-6-[6-(6-{[(2S)-1-(1H-tetrazol-1-yl)propan-2-yl]oxy}pyridin-2-yl)imidazo[1,2-b]pyridazin-3-yl]benzonitrile]	< 10
C[C@@H](Cn1cnnn1)Oc1cccc(-c2ccc3ncc(-c4cccc(OC(F)F)c4C#N)n3n2)c1 [Example 412, 2-(difluoromethoxy)-6-[6-(3-{[(2S)-1-(1H-tetrazol-1-yl)propan-2-yl]oxy}phenyl)imidazo[1,2-b]pyridazin-3-yl]benzonitrile]	< 10
C[C@@H](Cn1cnnn1)Oc1cccc(-c2ccc3ncc(-c4cccc(C(F)F)c4C#N)n3n2)c1 [Example 413, 2-(difluoromethyl)-6-[6-(3-{[(2S)-1-(1H-tetrazol-1-yl)propan-2-yl]oxy}phenyl)imidazo[1,2-b]pyridazin-3-yl]benzonitrile]	< 10
C[C@@H](Cn1cnnn1)Oc1cccc(-c2ccn3ncc(-c4cc(F)ccc4C#N)c3n2)n1 [Example 416, 4-fluoro-2-[5-(6-{[(2S)-1-(1H-tetrazol-1-yl)propan-2-yl]oxy}pyridin-2-yl)pyrazolo[1,5-a]pyrimidin-3-yl]benzonitrile]	< 10
C[C@@H](Cn1cnnn1)Oc1cccc(-c2ccc3ncc(-c4cc(F)cc(C(F)F)c4C#N)n3n2)n1 [Example 417, 2-(difluoromethyl)-4-fluoro-6-[6-(6-{[(2S)-1-(1H-tetrazol-1-yl)propan-2-yl]oxy}pyridin-2-yl)imidazo[1,2-b]pyridazin-3-yl]benzonitrile]	< 10
CC(=O)c1cccc(-c2cnc3ccc(-c4cccc(O[C@@H](C)Cn5cnnn5)c4)nn23)c1C#N [Example 426, 2-acetyl-6-[6-(3-{[(2S)-1-(1H-tetrazol-1-yl)propan-2-yl]oxy}phenyl)imidazo[1,2-b]pyridazin-3-yl]benzonitrile]	< 10
C[C@@H](Cn1cnnn1)Oc1cccc(-c2ccc3ncc(-c4cccc(C(C)(F)F)c4C#N)n3n2)c1 [Example 427, 2-(1,1-difluoroethyl)-6-[6-(3-{[(2S)-1-(1H-tetrazol-1-yl)propan-2-yl]oxy}phenyl)imidazo[1,2-b]pyridazin-3-yl]benzonitrile]	< 10
C[C@@H](Cn1cnnn1)Oc1cc(-c2ccc3ncc(-c4nccc(OCF)c4C#N)n3n2)ccc1F [Example 435, 2-[6-(4-fluoro-3-{[(2S)-1-(1H-tetrazol-1-yl)propan-2-yl]oxy}phenyl)imidazo[1,2-b]pyridazin-3-yl]-4-(fluoromethoxy)pyridine-3-carbonitrile]	< 10
COc1cc(F)cc(-c2cnc3ccc(-c4ccc(F)c(O[C@@H](C)Cn5cnnn5)n4)nn23)c1C#N [Example 447, 4-fluoro-2-[6-(5-fluoro-6-{[(2S)-1-(1H-tetrazol-1-yl)propan-2-yl]oxy}pyridin-2-yl)imidazo[1,2-b]pyridazin-3-yl]-6-methoxybenzonitrile]	< 10
COc1cc(Cl)cc(-n2cnc3ccc(-c4cncc(O[C@@H](C)Cn5cnnn5)n4)nc32)c1C#N [Example 448, 4-chloro-2-methoxy-6-[5-(6-{[(2S)-1-(1H-tetrazol-1-yl)propan-2-yl]oxy}pyrazin-2-yl)-3H-imidazo[4,5-b]pyridin-3-yl]benzonitrile]	< 10
COc1cc(F)cc(-c2cnc3ccc(-c4cccc(O[C@@H](C)Cn5cncn5)n4)nn23)c1C#N [Example 452, 4-fluoro-2-methoxy-6-[6-(6-{[(2S)-1-(1H-1,2,4-triazol-1-yl)propan-2-yl]oxy}pyridin-2-yl)imidazo[1,2-b]pyridazin-3-yl]benzonitrile]	< 10
C[C@@H](Cn1cnnn1)Oc1cccc(-c2ccc3ncc(-c4nccc(OCF)c4C#N)n3n2)c1 [Example 466, 4-(fluoromethoxy)-2-[6-(3-{[(2S)-1-(1H-tetrazol-1-yl)propan-2-yl]oxy}phenyl)imidazo[1,2-b]pyridazin-3-yl]pyridine-3-carbonitrile]	< 10
C[C@@H](Cn1cnnn1)Oc1cccc(-c2ccc3ncc(-c4nc(F)ccc4C#N)n3n2)c1 [Example 467, 6-fluoro-2-[6-(3-{[(2S)-1-(1H-tetrazol-1-yl)propan-2-yl]oxy}phenyl)imidazo[1,2-b]pyridazin-3-yl]pyridine-3-carbonitrile]	< 10
